# In PubChem BioAssay AID624167 (Sanford-Burnham Center for Chemical Genomics, 2012):
# pIC50: −log10 of the molar value. Calls of active or inactive are those of the source.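 The calls were made as follows: active = mean IC50 for reducing PEG3 promoter reporter signal at or below a set limit, with IC50 above the limit in both counter screens; inactive = the rest, including counter screen hits.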
# Key:
# PEG-3 [1] = assay: Peg3 promoter luciferase inhibitors, potency, dose response, cell-based, HeLa, CREF/GAPDH counter-screen panel (AID 624167); conditions: HeLa PEG-Prom luciferase reporter, overnight, CREF/GAPDH counter-screens
# PEG-3 [2] = target: PEG-3 (UniProt Q6IN02); assay: as above; conditions: HeLa PEG-Prom luciferase reporter, overnight, CREF/GAPDH counter-screens, mean of runs
# [3] = run 1, dose range 1, individual replicate IC50 per panel
# [4] = run 2, dose range 1, individual replicate IC50 per panel
# PEG-3 (UniProt Q6IN02), sequence (Q6IN02 whole entry, looked up): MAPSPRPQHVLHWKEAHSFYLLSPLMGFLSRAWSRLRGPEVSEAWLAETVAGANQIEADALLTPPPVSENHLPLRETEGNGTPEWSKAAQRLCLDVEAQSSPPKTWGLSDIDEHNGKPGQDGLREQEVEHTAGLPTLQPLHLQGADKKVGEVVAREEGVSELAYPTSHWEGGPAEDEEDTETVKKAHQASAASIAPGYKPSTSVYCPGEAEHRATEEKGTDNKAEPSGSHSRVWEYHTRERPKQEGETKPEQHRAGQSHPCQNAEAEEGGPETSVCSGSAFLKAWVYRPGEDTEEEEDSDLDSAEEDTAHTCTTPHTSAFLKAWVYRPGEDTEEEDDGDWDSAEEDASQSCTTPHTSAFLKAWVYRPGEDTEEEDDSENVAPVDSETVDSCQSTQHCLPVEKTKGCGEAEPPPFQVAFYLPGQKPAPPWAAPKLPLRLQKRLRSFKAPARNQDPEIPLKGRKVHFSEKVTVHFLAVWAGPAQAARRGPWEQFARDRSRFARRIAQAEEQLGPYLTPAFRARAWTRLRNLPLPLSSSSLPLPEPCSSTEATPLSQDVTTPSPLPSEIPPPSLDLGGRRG
Compound,pIC50 (PEG-3 [1]; [3]),pIC50 (PEG-3 [1]; [4]),IC50 (PEG-3 [2]),pIC50 (PEG-3 [2])
CCCc1nc(SCC(=O)N2CCCc3ccccc32)c2c(=O)n(C)c(=O)n(C)c2n1,4.31,4.42,inactive,
C[C@@H](NCCCn1cnc2c(OCc3ccccc3)ncnc21)c1cccc2ccccc12,4.75,4.82,,4.78
CCCCC(=O)NC(c1ccccc1Cl)c1ccc2cccnc2c1O (centres undefined),5.53,< 4.00,inactive,
CCOc1ccc2nc(N(CCCN(C)C)C(=O)c3ccc(C(=O)c4ccccc4)cc3)sc2c1,4.69,5.12,,4.86
CCOc1cc(CNCCO)cc(Br)c1OCc1ccccc1Cl,4.39,4.13,inactive,
O=C1NC(Cc2ccc(O)cc2)c2nc3ccc(F)cc3c(=O)n2-c2cc3ccccc3cc21 (centres undefined),4.70,4.46,inactive,
CCc1ccc(NC(=O)CSc2nc3ccccc3c(=O)n2CCCN2CCC(C)CC2)cc1,4.70,4.83,,4.76
Cc1nn(C(C)(C)C)c(C)c1/C=N/OC(=O)Nc1ccc(Cl)cc1,5.21,> 6.70,,5.50
O=C(Nc1ccc(CN2CCCCC2)cc1)Nc1ccc(Br)cc1Cl,4.69,4.70,inactive,
CCOc1ccc(Nc2c3ccccc3nc3ccccc23)cc1,4.66,4.92,,4.77
COC(=O)c1ccc(Nc2cc(C)nc3ccc(C)cc23)cc1,4.75,5.03,,4.87
CN(C)CCc1cc2c(c3c1ccc1ccccc13)OCO2,4.77,4.95,,4.85
O=C(/C=C/c1ccccc1)NC(NC(=S)Nc1cccc(Cl)c1)C(Cl)(Cl)Cl (centres undefined),4.74,4.97,,4.84
CCOc1cccc2sc(N(CCCN(C)C)C(=O)c3ccc(S(=O)(=O)N(C)Cc4ccccc4)cc3)nc12,4.73,4.83,,4.78
COc1cccc(Nc2nc(C(N)Cc3ccccc3)cs2)n1 (centres undefined),4.69,4.80,,4.74
CC1=C(CC[C@@H](C)CO)OC2CC3C4CCC5CC(O)CCC5(C)C4CC(=O)C3(C)C12 (some centres undefined),4.61,4.19,inactive,
COc1ccc2sc3cccc(NCCN(C)C)c3c(=O)c2c1,4.67,< 4.00,inactive,
COc1nc(N)c(C#N)c(-c2ccc(N(C)CCC#N)cc2)c1C#N,5.20,4.45,inactive,
Oc1cccc(C(Nc2nccs2)c2ccc3cccnc3c2O)c1 (centres undefined),< 4.00,4.51,inactive,
Cc1ccc(N2CC(C(=O)Nc3nccs3)CC2=O)cc1Cl (centres undefined),4.48,4.98,inactive,
CN(Cc1ccccc1)C(=O)c1ccc(Nc2nc(C(N)Cc3ccccc3)cs2)nc1 (centres undefined),4.66,4.83,,4.74
CCN(C(=O)CSc1nc2n[nH]c(C)c2c(=N)n1-c1ccc(Cl)c(C)c1)c1cccc(C)c1,4.72,4.68,,4.70
CCCn1c(=N)n(CC(=O)c2ccc(Cl)cc2)c2ccccc21,4.72,4.31,inactive,
COc1ccc(-c2cc(-c3ccc(F)cc3)nc(N3CCN(C)CC3)n2)cc1,4.67,< 4.00,inactive,
Cn1c(=O)c(C(=O)CCl)c(N)n(Cc2ccccc2)c1=O,4.54,4.88,inactive,
C=C(C)Cn1c(SCC(=O)N/N=C/c2c(O)ccc3ccccc23)nc2ccccc2c1=O,< 4.00,< 4.00,> 100 µM (inactive),
Cc1cccc(/C=C2/Sc3ccc(C(=O)NCCN4CCCC4)cc3NC2=O)c1,4.68,5.00,,4.81
COc1ccc(CNCCc2c(C)[nH]c3ccc(OC(F)(F)F)cc23)c(OC)c1,4.87,4.88,,4.87
